Laboratory results reported in patent US20130231312A1, “TREATMENT OF TYPE II DIABETES AND DIABETES-ASSOCIATED DISEASES WITH SAFE CHEMICAL MITOCHONDRIAL UNCOUPLERS” (priority 2010, published 2013).

Legend:
[1] = tested on: db/db mice; assay: Acute I.P. CSAA treatment, blood glucose in diabetic db/db mice; assay type: in vivo; conditions: 100 microgram/mouse I.P.
Description: (§1) The 5-week old db/db mice and the C57/B16 mice were purchased from Jackson Laboratory and housed in the vivarium of UMDNJ-RWJMS. […] For food intake experiments, sets of mice were housed individually in metabolic cages (Nalgene) with free access to food and water. Food cups and food scattered in the runway to the cups were weighed daily to determine food intake. For mouse tissue studies, mice were sacrificed by decapitation, and the tissues of interesting were obtained.
(§2) Blood glucose was determined using OneTouch UltraSmart blood glucose monitoring system (Lifescan), and the insulin levels were measured by ultra sensitive mouse insulin ELISA kit (Crystal Chem Inc.), following the manufacturer's instructions.

[2] = tested on: high-fat diet induced pre-diabetic C57/B16 mice; assay: Acute I.P. treatment, blood glucose in high-fat diet induced pre-diabetic mice; assay type: in vivo; conditions: 100 microgram/mouse I.P., starved 5 hours
Description: as §1, §2

[3] = tested on: AMPK; assay: Immunoblotting of phosphorylated AMPK in liver after acute I.P. CSAA; assay type: in vivo; conditions: mouse liver, acute 100 microgram/mouse I.P., 0, 2, 4 hours
Method: (§3) Immunoblotting assays were carried out according to standard protocol. The sources of the antibodies are: AMPK antibody (Cell Signaling Technology), Thr-172-phosphorylated AMPK antibody (Cell Signaling Technology), Ran antibody (C-20, Santa Cruz).

[4] = tested on: C57/B16 mice; assay: Glucose uptake assay with 3H 2-deoxyglucose in tissues; assay type: in vivo; conditions: acute 100 microgram/mouse I.P., 3H-2-deoxyglucose 1.5 hours later
Method: 1.5 hours later, ^3H-2-deoxyglucose (0.5 microcurrie/gram of body weight) was injected through I.P. route. 30 minutes later, mice were treated with anesthetics and perfused with PBS. Mice were then sacrificed and tissue was extracted for measurement of ^3H-2-deoxyglucose accumulation (normalized against tissue mass).

[5] = tested on: db/db mice; assay: Chronic oral CSAA treatment of db/db diabetic mice; assay type: in vivo, mouse
Description: as §1, §2

[6] = tested on: C57/B16 mice fed with high-fat diet; assay: Chronic oral CSAA treatment of high-fat diet induced pre-diabetic mice; assay type: in vivo, mouse
Description: as §1, §2

[7] = tested on: C57/B16 mice fed with high-fat diet; assay: Glucose tolerance assay after chronic oral CSAA; assay type: in vivo, mouse; conditions: high-fat diet containing 1500 ppm CSAA for 9 weeks
Method: (§4) For glucose tolerance tests, mice were starved overnight and injected I.P. with 20% glucose at a dose of 2 g/kg body weight. Blood was obtained from the tail at time points 0, 15, 30, 60, 90, and 120 min for glucose measurement. For insulin tolerance tests, mice were starved for 5 h and injected I.P. with 0.75 U/kg body weight recombinant human insulin (Eli Lilly). Blood was obtained from the tail at time points 0, 15, 30, 60, 90, and 120 min for glucose measurement.

[8] = tested on: C57/B16 mice fed with high-fat diet; assay: Insulin tolerance assay after chronic oral CSAA; assay type: in vivo, mouse; conditions: high-fat diet containing 1500 ppm CSAA for 9 weeks
Method: as §4

[9] = tested on: AMPK; assay: Immunoblotting of phosphorylated AMPK in liver after chronic oral CSAA; assay type: in vivo, mouse; conditions: mice under high-fat diet
Method: as §3

[10] = Chronic I.P. CSAA injection, high-fat diet induced body weight gain and food uptake; assay type: in vivo; conditions: daily I.P. 100 μg/mouse
Description: as §1
The other 12 mice were injected daily with vehicle only (PBS). The body weight was measured twice a week and the net body weight gain for each mouse was determined. The average weight gain in each group over the experimental period was plotted. […] The food uptake levels were measured daily with metabolic cages from the day 15 to day 29 and the average daily food uptake of each group was calculated.

[11] = tested on: mitochondria isolated from mouse liver; assay: Mitochondrial uncoupling assay with isolated mitochondria (oxygen consumption, Oxygraph); assay type: biochemical; conditions: oligomycin 5 μg/ml
Method: For mitochondrial uncoupling assay with isolated mitochondria: Mitochondria were isolated from mouse liver. 1.0 mg of mitochondria in a volume of 0.9 ml of respiration buffer was analyzed for oxygen consumption in the presence of mitochondrial substrate as well as the various inhibitors with an Oxygraph System (Hansatech Instrument, Norfolk, UK). The final concentrations of the various chemicals added into the respiration buffer are as follows: succinate, 5 mM; ADP, 125 μM; oligomycin, 5 μg/ml; KCN, 2 mM)

[12] = tested on: NIH-3T3 cells; assay: Mitochondrial membrane potential (TMRE staining) in cultured cells; assay type: cell-based, mouse
Method: For mitochondrial uncoupling activity analysis with the cultured cells, the NIH-3T3 were culture to 90% confluence. […] The cells were then treated with TMRE (Tetramethylrhodamine ethyl ester perchlorate) to a final concentration of 100 nM, incubate for 15 minutes. The cells were then washed twice with PBS, and the pictures were taken under microscope.

[13] = tested on: NIH-3T3 cells; assay: Cellular oxygen consumption (BD Oxygen Biosensor System); assay type: cell-based, mouse
Method: (§5) BD™ Oxygen Biosensor System was used to measure the cellular oxygen consumption. NIH-3T3 cells were cultured overnight to log phase, then seeded in oxygen biosensor 96-well plate at the density of 20000 cells per well in DMEM medium. […] Oxygen consumptions (decrease in oxygen concentrations) were indicated by generation of fluorescent signals which were initially quenched by oxygen. Cellular ATP concentrations were measured with the ENLITEN® ATP Assay System and normalized against cell number.

[14] = tested on: NIH-3T3 cells; assay: Cellular ATP concentrations (ENLITEN ATP Assay System); assay type: cell-based, mouse; conditions: CSAA 1 μM
Method: as §5

[15] = tested on: hepatocytes; conditions: high-fat diet containing 1500 ppm CSAA for 10 weeks
Description: For mouse liver histological study, the mice sacrificed by decapitation. Liver slices were fixed with buffered formalin (Surgipath Medical Industries, Inc.) and embedded in paraffin. Tissue slides were stained with hematoxylin and eosin (H&E) for detection of lipid droplets in tissue samples. Pictures were taken with a Universal Microscope Axioplan 2 imaging system (Carl Zeiss) with phase contrast objectives.

[16] = among the first 100,000 persons treated; cited from earlier work
[17] = tested on: mitochondria; conditions: cited from earlier work
[18] = stated for both mouse strains (FIG. 1)
[19] = high-fat diet containing 1500 ppm CSAA for 8 weeks
[20] = NIH-3T3 cells, 2 hours treatment, TMRE

Question: For NCCO.O=C(Nc1ccc([N+](=O)[O-])cc1Cl)c1cc(Cl)ccc1O [CSAA, 5-chloro-salicyl-(2-chloro-4-nitro) anilide 2-aminoethanol salt], which “time after treatment at which blood glucose concentrations were lowered” value [1, 18] is on record?
Answer: The value was about 1 h.

Question: And the “time until which blood glucose lowering remained effective” value [1, 18]?
Answer: Its value is “about 4 hours”.

Question: What about the “reduction in blood glucose as compared to the control” value ([1]; db/db mice, starved 5 hours) of the same molecule?
Answer: The value was 30%.

Question: What about the “effect on blood glucose concentration (hypoglycemic activity)” value [2] of the same molecule?
Answer: The value was “dramatic decrease in blood glucose concentration”.

Question: And the “levels of the phosphorylated AMPK” value [3]?
Answer: The value was “dramatically increased”.

Question: And the “glucose uptake rates in liver, muscles, kidney, and lungs” value [4]?
Answer: The value was “significantly increased”.

Question: What about the “food intake rates versus mice fed normal food” value ([5]; 1500 ppm in food) of the same molecule?
Answer: Its value is “not significantly different”.

Question: What about the “body weight and adiposity versus control mice” value ([5]; oral CSAA (data not shown)) of the same molecule?
Answer: The value was “not different from the control mice”.

Question: And the “fasting blood glucose levels versus non-CSAA treated mice at later time” value ([5]; oral treatment beyond two weeks (data not shown))?
Answer: Its value is “remained significantly lower”.

Question: And the fasting blood glucose ([5]; two week oral treatment, 1500 ppm in AIN-93M food)?
Answer: The fasting blood glucose was “reduced the fasting blood glucose of the db/db mice to almost normal levels”.

Question: And the fasting blood glucose [6, 19]?
Answer: The fasting blood glucose was “completely prevented the increase of fasting blood glucose”.

Question: And the “fasting insulin concentrations versus control group” value [6, 19]?
Answer: Its value is “significantly lower”.

Question: What about the food uptake ([6]; high-fat diet containing 1500 ppm CSAA, weeks 7 to 8) of the same molecule?
Answer: The food uptake was “no effect”.

Question: What about the “body weight and adiposity versus control mice” value ([6]; high-fat diet with oral CSAA (data not shown)) of the same molecule?
Answer: Its value is “not different from the control mice”.

Question: And the “insulin sensitivity by glucose tolerance assay” value [7]?
Answer: The value was “significantly increased insulin sensitivity”.

Question: What about the “insulin sensitivity by insulin tolerance assay” value [8] of the same molecule?
Answer: The value was “significantly increased insulin sensitivity”.

Question: What about the “AMPK activity in liver” value [9] of the same molecule?
Answer: The value was “chronically elevated”.

Question: And the “food uptake rate versus vehicle group” value ([10]; day 15 to day 29)?
Answer: Its value is “higher food uptake rate”.

Question: And the “weight gain induced by high-fat diet” value ([10]; mice aged 8 months on high-fat diet)?
Answer: The value was “reduces the weight gain”.

Question: And the “mitochondrial oxygen consumption in the presence of oligomycin” value [11]?
Answer: Its value is “still effectively promoted mitochondrial oxygen consumption”.

Question: What about the “earliest time at which dissipation of mitochondrial membrane potential is seen” value ([12]; NIH-3T3 cells, 2 μM CSAA) of the same molecule?
Answer: Its value is 5 min.

Question: What about the “concentration at which reduction of mitochondrial membrane potential starts” value [12, 20] of the same molecule?
Answer: Its value is 500 nM.

Question: And the “concentration for full uncoupling of mitochondria” value [12, 20]?
Answer: The value was “around 5 micromolar”.

Question: What about the “concentration range at which mitochondria are uncoupled in cultured cells” value ([12]; cultured cells) of the same molecule?
Answer: The value was “high nanomolar to low micromolar range”.

Question: And the cellular oxygen consumption ([13]; CSAA 1 μM)?
Answer: Its cellular oxygen consumption is “dramatically stimulated”.

Question: And the “effect of oligomycin co-treatment on CSAA-stimulated oxygen consumption” value ([13]; CSAA 1 μM and oligomycin 5 μg/ml)?
Answer: The value was “did not significantly affect”.

Question: What about the “steady-state ATP concentrations in cells” value [14] of the same molecule?
Answer: The value was “does not affect”.

Question: What about the “lipid load in hepatocytes” value [15] of the same molecule?
Answer: Its value is “dramatically reduced”.

Question: What does the source list for O=[N+]([O-])c1ccc(O)c([N+](=O)[O-])c1 [DNP, 2,4-dinitrophenol]?
Answer: fatalities due to hyperthermia [16]: two fatalities; concentrations at which the mitochondrial uncoupler functions [17]: mini molar concentrations
